{"source": "paper PMC12903969", "about": "“Discovery of a Novel and Potent Kir4.1 Inhibitor as a Safe and Rapid‐Onset Antidepressant Agent in Mice” (Advanced Science, 2025)", "key": {"hERG": {"biological_target": "T1, hERG (Homo sapiens, UniProt Q12809)", "T1 construct": "expressed in transfected cells; host or cells: CHO-hERG", "test": "hERG inhibition (QPatch, CHO-hERG cells)", "type": "cell-based", "method": "CHO‐hERG cells were cultured to 60–80% confluency in 175‐cm^2 flasks, washed with PBS, and digested with detachin. After centrifugation, the cells were resuspended in medium at 2–5×10^6 mL^−1. Patch‐clamp recordings were performed using a QPatch with extracellular solution (140 NaCl, 5 KCl, 2 CaCl2, 1 MgCl2, 10 HEPES, 10 glucose, pH 7.4) and intracellular solution (145 KCl, 1 MgCl2, 5 EGTA, 10 HEPES, 5 Mg‐ATP, pH 7.3). Cells were clamped at −80 mV, stimulated with a 50 ms pre‐pulse to −50 mV, followed by 2 s depolarization to +40 mV, and 2 s repolarization to −50 mV, repeated every 5 s. After baseline recording, the test compound at various concentrations or 300 nM cisapride (positive control) was applied."}, "Kir4.1 T155A": {"biological_target": "T2, Kir4.1 T155A (Homo sapiens, UniProt P78508, T155A)", "T2 construct": "expressed in transfected cells; host or cells: CHO-K1", "T2 sequence (P78508 whole entry T155A)": "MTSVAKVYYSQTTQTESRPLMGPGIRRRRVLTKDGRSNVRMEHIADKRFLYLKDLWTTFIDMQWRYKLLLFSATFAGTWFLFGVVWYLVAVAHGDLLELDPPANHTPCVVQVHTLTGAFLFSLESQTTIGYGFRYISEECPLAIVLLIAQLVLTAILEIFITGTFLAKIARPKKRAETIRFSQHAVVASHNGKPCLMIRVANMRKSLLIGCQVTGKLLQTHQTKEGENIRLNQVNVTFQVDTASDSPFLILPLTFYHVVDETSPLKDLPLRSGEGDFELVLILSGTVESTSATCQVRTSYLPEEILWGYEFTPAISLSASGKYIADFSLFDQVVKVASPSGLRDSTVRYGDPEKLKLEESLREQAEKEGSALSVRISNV", "test": "Whole-cell patch clamp, Kir4.1 point mutant T155A", "type": "cell-based", "conditions": "JX3212 3 µM (Fig 2D)", "method": "Plasmids encoding WT human potassium channels Kir1.1, Kir2.1, Kir2.2, Kir4.1, and Kir4.2 were obtained from the Beijing Genomics Institute. All point mutations were constructed using the QuickChange II Site‐Directed Mutagenesis Kit (Stratagene) and subsequently verified by sequencing.\nCHO‐K1 cells were maintained in DMEM/F12 growth medium containing 10% fetal bovine serum. Plasmids encoding the target genes (3600 ng) and enhanced green fluorescent protein (400 ng) were cotransfected into cells using Lipofectamine 2000 (Invitrogen) in accordance with the manufacturer's instructions. Cells were seeded onto poly‐d‐lysine (PDL)‐coated glass coverslips 1 h prior to electrophysiological recordings. […]\nWhole‐cell patch‐clamp recordings were obtained either in transiently transfected CHO‐K1 cells or in primary cultured astrocytes at room temperature using standard patch‐clamp techniques with an Axopatch‐700B amplifier (Axon Instruments). […] Macroscopic currents generated by expressed potassium channels were recorded under the voltage‐clamp conditions with an internal pipette solution composed of (in mM): 140 KCl, 5 NaCl, 1 CaCl2, 1 MgCl2, 10 HEPES, and 10 EGTA, pH 7.2 adjusted with KOH. […] Astrocytic resting membrane potentials were recorded under current‐clamp conditions (I = 0 pA) using standard internal and external solutions, determined immediately after achieving whole‐cell mode."}, "mice": {"test_system": "mice", "test": "Rotarod test (RT)", "type": "in vivo", "conditions": "chronic 10 mg kg−1 per day", "method": "The rotarod test was designed to evaluate the coordination and motor performance of rodents. The speed and time were set for the rod rotators. All experimental mice were allowed to adapt to a lower speed (5 rpm). For the formal test, the mice were placed on a rod spinning at 20 rpm, and the duration that the mice were able to hold on the rod at this speed was recorded. The maximum test duration was 20 min."}, "5-HT2B receptor": {"biological_target": "T3, 5-HT2B receptor (Homo sapiens, UniProt P41595)", "T3 construct": "expressed in transfected cells", "T3 sequence (P41595 whole entry)": "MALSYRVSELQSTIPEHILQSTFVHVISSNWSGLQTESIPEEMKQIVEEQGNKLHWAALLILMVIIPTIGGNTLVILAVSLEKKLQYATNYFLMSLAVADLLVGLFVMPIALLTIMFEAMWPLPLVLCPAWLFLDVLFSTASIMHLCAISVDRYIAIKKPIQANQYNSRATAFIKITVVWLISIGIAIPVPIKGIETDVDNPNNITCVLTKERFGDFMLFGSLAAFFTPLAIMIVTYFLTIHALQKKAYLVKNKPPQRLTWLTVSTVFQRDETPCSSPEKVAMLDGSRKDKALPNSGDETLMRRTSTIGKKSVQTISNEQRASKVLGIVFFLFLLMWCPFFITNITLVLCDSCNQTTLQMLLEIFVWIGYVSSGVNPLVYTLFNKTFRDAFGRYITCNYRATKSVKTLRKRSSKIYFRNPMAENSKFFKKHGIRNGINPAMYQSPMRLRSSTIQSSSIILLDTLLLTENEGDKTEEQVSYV", "test": "5-HT2B functional assay (Fluo-4 calcium, FDSS)", "type": "cell-based", "method": "Cells with inducible expression of target receptor were cultured in 175‐cm^2 flasks until ≈80% confluence, washed once with phosphate‐buffered saline (PBS), and dissociated using 0.25% trypsin–EDTA. After neutralization with culture medium and centrifugation (800 rpm, 3 min), the cells were resuspended, counted, and seeded onto poly‐D‐lysine‐coated 96‐well black plates at a density of 4 × 10^4 cells/well. Expression of the target receptor was induced with 1 µg mL^−1 doxycycline. After 30 min at room temperature, the plates were incubated at 37 °C, 5% CO2 for 18−24 h until reaching ≈90% confluence. The medium was replaced with Ca^2⁺‐free extracellular buffer, washed once, and incubated with Fluo‐4 AM for 60 min at 37 °C in the dark. After washing twice with extracellular buffer, extracellular buffer was added (80 µL/well), and the cells were incubated for an additional 20 min at room temperature before fluorescence recording. Real‐time fluorescence changes were recorded using an FDSS/µCell system at 480 nm excitation and 540 nm emission with a sampling rate of 1 Hz. After a 10‐s baseline, the test compounds were added (20 µL/well), and fluorescence was recorded for 180 s. Subsequently, […] was added (20 µL/well), and the signals were monitored for a total of 360 s.\nThe agonistic effect (%) of compounds was calculated as follows: (1) Agonist%=Rcompound−Rcontrol/Rcontrol×100% where R control is the maximal fluorescence ratio after the addition of 0.5% DMSO and R compoundis the ratio obtained after compound treatment. Fluorescence response curves and EC50 values were used to evaluate the agonistic potency. The extracellular (Ca^2+‐free) buffer contained (in mM): 140 NaCl, 5 KCl, 1 MgCl2, 10 glucose, 10 HEPES, 2 probenecid; pH adjusted to 7.4 with NaOH."}, "C57BL/6J mice": {"test_system": "C57BL/6J mice", "test": "Seizure threshold measurement in maximal electroshock (MES)", "type": "in vivo", "design": "seizure incidence, Single dose-MES / seizure incidence, Multiple dose-MES: unit not given here", "conditions": "for seizure incidence, Multiple dose-MES / seizure incidence, Single dose-MES: JX3212 10 mpk", "method": "Male C57BL/6J mice underwent corneal electroshock stimulation using an Orchid Scientifics EC‐02 stimulator with a fixed pulse duration of 0.2 s. The current intensity was titrated in a stepwise manner (0.1 mA increments) based on real‐time behavioral responses during serial testing. Seizure severity was quantified using the hindlimb tonic extension score, with rigorous blinding applied to the vehicle‐ and JX3212‐treated groups. Subsequently, CS50 values were determined."}}, "note": "Several values for one entry are separate records, joined by “and”; a condition that tells them apart may be missing. Identical values can stand only once."}
{"smiles": "c1ccc2c(c1)oc1ccc(Nc3ccnc(NCCCN4CCOCC4)n3)cc12", "note": "[JX3212, N^4-(dibenzo[b,d]furan-2-yl)-N^2-(3-morpholinopropyl)pyrimidine-2,4-diamine]", "values": [{"measurement": "IC50", "setting": "hERG", "value": 1.02, "unit": "µM"}, {"measurement": "Mutation: T155A inhibition, single recordings", "setting": "Kir4.1 T155A", "value": "94.2403 and 81.3915 and 95.4304"}, {"measurement": "inhibition at 3 µM", "setting": "Kir4.1 T155A; read-out: Mutation: T155A inhibition, single recordings", "value": 94.3, "unit": "%"}, {"measurement": "rotarod falling latency vs vehicle (in words)", "setting": "mice", "value": "showed no significant effects"}, {"measurement": "EC50", "setting": "5-HT2B receptor; agonistic effect", "value": "> 60000", "unit": "nM"}, {"measurement": "activation at 60 µM", "setting": "5-HT2B receptor; read-out: 5-HT2B agonistic effect, replicates, concentration 60 (presumably µM)", "value": 55.2, "unit": "%"}, {"measurement": "Emax", "setting": "5-HT2B receptor; read-out: 5-HT2B max activation%", "value": 62.4, "unit": "%"}, {"measurement": "seizure susceptibility, maximal electronic seizure model (in words)", "setting": "C57BL/6J mice; 10 mg kg−1, single or 14-day consecutive administration", "value": "did not alter seizure susceptibility"}, {"measurement": "seizure incidence, Multiple dose-MES", "setting": "C57BL/6J mice; stimulus 0.45 mA", "value": 0}, {"measurement": "seizure incidence, Single dose-MES", "setting": "C57BL/6J mice; stimulus 0.45 mA", "value": 0}, {"measurement": "seizure incidence, Multiple dose-MES", "setting": "C57BL/6J mice; stimulus 0.55 mA", "value": 12.5}, {"measurement": "seizure incidence, Single dose-MES", "setting": "C57BL/6J mice; stimulus 0.55 mA", "value": 37.5}, {"measurement": "seizure incidence, Multiple dose-MES", "setting": "C57BL/6J mice; stimulus 0.65 mA", "value": 50}, {"measurement": "seizure incidence, Single dose-MES", "setting": "C57BL/6J mice; stimulus 0.65 mA", "value": 50}, {"measurement": "seizure incidence, Multiple dose-MES", "setting": "C57BL/6J mice; stimulus 0.75 mA", "value": 87.5}, {"measurement": "seizure incidence, Single dose-MES", "setting": "C57BL/6J mice; stimulus 0.75 mA", "value": 75}]}
